In PubChem BioAssay AID1919010 (Molecular Pharmacology Branch, DTP, NCI, 2023):

System: Hs578T complex spheroid growth, percent test/control
Assay: Anticancer human tumor Hs578T cell line growth inhibition [AhR];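 note: luminescent viability signal as a proxy for spheroid growth; spheroids exposed to agents for one week after three days of growth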
Settings: for IC50: curve of first compound; for viability, T/C: stronger effect = lower value
Summary of the method: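 Spheroids combined tumor cells with HUVEC endothelial cells and human MSCs as stroma. AhR antagonists were paired with standard or investigational drugs, each dosed in half-log steps down from near clinical Cmax, or from 10 microM where Cmax was unknown.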

With CC1(C)CCC(CN2CCN(c3ccc(C(=O)NS(=O)(=O)c4ccc(NCC5CCOCC5)c([N+](=O)[O-])c4)c(Oc4cnc5[nH]ccc5c4)c3)CC2)=C(c2ccc(Cl)cc2)C1 + Cc1ccccc1N=Nc1ccc(NC(=O)c2ccnn2C)c(C)c1 the IC50 (second compound 0.1 µM) was > 10 µM, the IC50 (second compound 0.316 µM) was > 10 µM and the IC50 (second compound 1 µM) was > 10 µM. For the same compound, the IC50 (second compound 3.16 µM) was > 10 µM, the IC50 (second compound 10 µM) was > 10 µM and the viability, T/C (second compound 0.1 µM, first compound 0.0316 µM) was 117%. For the same compound, the viability, T/C (second compound 0.1 µM, first compound 0.1 µM) was 106%, the viability, T/C (second compound 0.1 µM, first compound 0.316 µM) was 100% and the viability, T/C (second compound 0.1 µM, first compound 1 µM) was 101%. The viability, T/C (second compound 0.1 µM, first compound 3.16 µM) was 97.3%, the viability, T/C (second compound 0.1 µM, first compound 10 µM) was 65.1% and the viability, T/C (second compound 0.316 µM, first compound 0.0316 µM) was 106%. For the same compound, the viability, T/C (second compound 0.316 µM, first compound 0.1 µM) was 106%, the viability, T/C (second compound 0.316 µM, first compound 0.316 µM) was 113% and the viability, T/C (second compound 0.316 µM, first compound 1 µM) was 109%. For the same compound, the viability, T/C (second compound 0.316 µM, first compound 3.16 µM) was 95.9%, the viability, T/C (second compound 0.316 µM, first compound 10 µM) was 65.8% and the viability, T/C (second compound 1 µM, first compound 0.0316 µM) was 103%. For the same compound, the viability, T/C (second compound 1 µM, first compound 0.1 µM) was 105%, the viability, T/C (second compound 1 µM, first compound 0.316 µM) was 108% and the viability, T/C (second compound 1 µM, first compound 1 µM) was 94.8%. For the same compound, the viability, T/C (second compound 1 µM, first compound 3.16 µM) was 97.2%, the viability, T/C (second compound 1 µM, first compound 10 µM) was 75.4% and the viability, T/C (second compound 3.16 µM, first compound 0.0316 µM) was 94.7%. For the same compound, the viability, T/C (second compound 3.16 µM, first compound 0.1 µM) was 95.9%, the viability, T/C (second compound 3.16 µM, first compound 0.316 µM) was 102% and the viability, T/C (second compound 3.16 µM, first compound 1 µM) was 90.3%. For the same compound, the viability, T/C (second compound 3.16 µM, first compound 3.16 µM) was 89.5%, the viability, T/C (second compound 3.16 µM, first compound 10 µM) was 69.3% and the viability, T/C (second compound 10 µM, first compound 0.0316 µM) was 66.1%. It also gave a viability, T/C (second compound 10 µM, first compound 0.1 µM) of 65.3%, a viability, T/C (second compound 10 µM, first compound 0.316 µM) of 65.9% and a viability, T/C (second compound 10 µM, first compound 1 µM) of 68.9%. For the same compound, the viability, T/C (second compound 10 µM, first compound 3.16 µM) was 67.2% and the viability, T/C (second compound 10 µM, first compound 10 µM) was 64.3%.
